Results from patent publication US6943183B2 (Pfizer Inc, priority 2000, dated 2005).
Structures can show the parent of a compound that is named as a salt.

Molecular target: T1, SF9 affinity purified rat FPT (Rattus norvegicus, UniProt Q02293+Q04631)
T1 construct: made in house; host or cells: Sf9 insect cells
Test: PFT (FPT) inhibitory activity assay, radiolabeled farnesyl pyrophosphate and biotinyl peptide, streptavidin beads
Type: biochemical
Settings: HEPES buffer pH 7.4, 30° C., 30 minutes; read-out: FTase IC50
Protocol: The PFT or FPT inhibitory activity of compounds of the present invention were assayed in HEPES buffer (pH 7.4) containing 5 mM potassium phosphate and 20 μM ZnCl2. The solution also contained 5 mM DTT (dithiothreitol), 5 mM MgCl2, and 0.1% PEG 8000. Assays were performed in 96 well plates (Wallec) and employed solutions composed of varying concentrations of a compound of the present invention in 10% DMSO (dimethylsulfoxide). […] After incubation at 30° C. for 30 minutes, the reaction was terminated by diluting the reaction 2.5-fold with a stop buffer containing 1.5 M magnesium acetate, 0.2 M H3PO4, 0.5% BSA (bovine serum albumin), and strepavidin beads (Amersham) at a concentration of 1.3 mg/mL. […] The assay was also carried out without 5 mM potassium phosphate.

| Compound | IC50 |
| --- | --- |
| 6-((1S)-2-Indazolyl-1-phenylethoxy)-5-amino-2,3,4-trihydronaphthalen-1-one [Compound 37] | 13 nM |
| CCC(C)OCc1c(O[C@H](Cn2ccnc2)c2ccccc2)ccc2c1CCCC2=O (mixture of isomers) [Compound 19d, (±)5-sec-Butoxymethyl-6-((S)-2-imidazol-1-yl-1-phenyl-ethoxy)-3,4-dihydro-2H-naphthalen-1-one] | 1.9 nM |
| O=C1CCC(c2ccccc2)c2cc(OC(Cn3ccnc3)c3ccccc3)ccc21 (racemic) [Compound 48, (±)-6-(2-imidazolyl-O-phenylethoxy)-4-phenyl-2,3,4-trihydronaphthalen-1-one] | 35 nM |
| C=CCc1c(OC(Cn2ccnc2)c2ccccc2)ccc2c1CCCC2=O (racemic) [Compound 49, (±)-6-(2-imidazolyl-1-phenylethoxy)-5-prop-2-ethyl-2,3,4-trihydronaphthalen-1-one] | 17 nM |
| C=C(C)Cc1c(OC(Cn2ccnc2)c2ccccc2)ccc2c1CCCC2=O (racemic) [Compound 52, (±)-6-(2-Imidazolyl-1-phenylethoxy)-5-(2-methylprop-2-enyl)-2,3,4-trihydronaphthalen-1-one] | 8 nM |
| C=CCc1c(OC(Cn2ccnc2)c2ccccc2Cl)ccc2c1CCCC2=O (racemic) [Compound 59, (±)-6-[1-(2-Chlorophenyl)-2-imidazolylethoxy]-5-prop-2-enyl-2,3,4-trihydronaphthalen-1-one] | 12 nM |
| C=CCc1c(OC(Cn2ccnc2)c2c(Cl)cccc2Cl)ccc2c1CCCC2=O (racemic) [Compound 60, (±)-6-[0-(2,6-Dichlorophenyl)-2-imidazolylethoxy]-5-prop-2-enyl-2,3,4-trihydronaphthalen-1-one, Trifluoroacetic Acid] | 29 nM |
| C=CCc1c(OC(Cn2ccnc2)c2cccs2)ccc2c1CCCC2=O (racemic) [Compound 61, (±)-6-(2-imidazolyl-1-(2-thienyl)ethoxy)-5-prop-2-ethyl-2,3,4-trihydronaphthalen-1-one] | 7 nM |
| Cc1nccn1CC(Oc1ccc2c(c1CCc1ccccc1)CCCC2=O)c1ccccc1 (racemic) [Compound 63o, (±)-6-[2-(2-Methyl-imidazol-yl)-1-phenyl-ethoxy]-5-phenethyl-3,4-dihydro-2H-naphthalen-1-one] | 4 nM |
| O=C1CCCc2c1ccc(O[C@H](Cn1ccnc1)c1ccccc1)c2C[S+]([O-])c1ccccn1 (mixture of isomers) [Compound 142, 6-((S)-2-Imidazol-1-yl-1-phenyl-ethoxy)-5-(pyridine-2-sulfinylmethyl)-3,4-dihydro-2H-napthalen-1-one] | 0.55 nM |
| CC(C)[S+]([O-])Cc1c(O[C@H](Cn2ccnc2)c2ccccc2)ccc2c1CCCC2=O (mixture of isomers) [Compound 143, 6-((S)-2-Imidazol-1-yl-1-phenyl-ethoxy)-5-(propane-2-sulfinylmethyl)-3,4-dihydro-2H-napthalen-1-one] | 1.4 nM |
| O=C1CCCc2c1ccc(O[C@H](Cn1ccnc1)c1cccnc1)c2CCc1ccccc1 (single isomer, unassigned) [Compound 63a] | 0.4 nM |
| O=C1CCCc2c1ccc(O[C@H](Cn1ccnc1)c1ccccc1)c2CSc1ccccc1 [Compound 1, 6-((1S)-2-Imidazolyl-1-phenylethoxy)-5-(phenylthiomethyl)-2,3,4-trihydronaphthalen-1-one] | 0.3 nM |
| O=C1CCCc2c1ccc(O[C@H](Cn1ccnc1)c1ccccc1)c2C[S+]([O-])c1ccccc1 (stereo partly shown) [Compound 2] | 3 nM |
| O=C1CCCc2c1ccc(O[C@H](Cn1ccnc1)c1ccccc1)c2CS(=O)(=O)c1ccccc1 [Compound 3] | 0.3 nM |
| COC(=O)c1ccccc1SCc1c(O[C@H](Cn2ccnc2)c2ccccc2)ccc2c1CCCC2=O [Compound 4, Methyl 2-{[2-((1S)-2-imidazolyl-1-phenylethoxy)-5-oxo-6,7,8-trihydronaphthyl]methylthio}benzoate] | 0.3 nM |
| O=C(O)c1ccccc1SCc1c(O[C@H](Cn2ccnc2)c2ccccc2)ccc2c1CCCC2=O [Compound 5, 2-{[2-((1S)-2-Imidazolyl-1-phenylethoxy)-5-oxo-6,7,8-trihydronaphenyl]methylthio}benzoic acid] | 2 nM |
| CC(C)SCc1c(O[C@H](Cn2ccnc2)c2ccccc2)ccc2c1CCCC2=O [Compound 6, 6-((S)-2-Imidazol-1-yl-1-phenyl-ethoxy)-5-isopropylsulfanylmethyl-2,3,4-trihydronaphthalen-1-one] | 0.4 nM |
| CC(C)S(=O)(=O)Cc1c(O[C@H](Cn2ccnc2)c2ccccc2)ccc2c1CCCC2=O [Compound 7] | 6 nM |
| O=C1CCCc2c1ccc(O[C@H](Cn1ccnc1)c1ccccc1)c2CSc1ccncc1 [Compound 8] | 3 nM |

| Compound | IC50 |
| --- | --- |
| O=C1CCCc2c1ccc(O[C@H](Cn1ccnc1)c1ccccc1)c2CSc1ccccn1 [Compound 9, 6-((1S)-2-Imidazolyl-1-phenylethoxy)-5-(2-pyridylthiomethyl)-2,3,4-trihydronaphthalen-1-one] | 4 nM |
| O=C1CCCc2c1ccc(O[C@H](Cn1ccnc1)c1ccccc1)c2CS(=O)(=O)c1ccccn1 [Compound 10, 6-(1S)-2-Imidazolyl-1-phenylethoxy)-5-[(2-pyridylsulfonyl)methyl]-2,3,4-trihydronaphthalen-1-one hydrochloride] | 0.3 nM |
| O=C1CCCc2c1ccc(O[C@H](Cn1ccnc1)c1ccccc1)c2CSc1cccc2ccccc12 [Compound 10a, 6-((S)-2-Imidazol-1-yl-1-phenyl-ethoxy)-5-(naphthalen-1-ylsulfanylmethyl)-3,4-dihydro-2H-naphthalen-1-one] | 30.5 nM |
| COC(=O)CSCc1c(O[C@H](Cn2ccnc2)c2ccccc2)ccc2c1CCCC2=O [Compound 10b, [2-(2-Imidazol-1-yl-1(S)-phenyl-ethoxy)-5-oxo-5,6,7,8-tetrahydro-naphthalen-1-ylmethylsulfanyl]-acetic acid methyl ester] | 2.5 nM |
| O=C1CCCc2c1ccc(O[C@H](Cn1ccnc1)c1ccccc1)c2CSCc1ccc(Cl)c(Cl)c1 [Compound 10c, 5-(3,4-Dichloro-benzylsulfanylmethyl)-6-((1S)-2-imidazol-1-yl-1-phenyl-ethoxy)-3,4-dihydro-2H-naphthalen-1-one] | 5.3 nM |
| O=C1CCCc2c1ccc(O[C@H](Cn1ccnc1CO)c1ccccc1)c2CS(=O)(=O)c1ccccc1 [Compound 10d, (S)-6{2-[2-(Hydroxymethyl)-1H-imidazol-1-yl]-1-phenylethoxy}-5-[(phenylsulfonyl)methyl]-3,4-dihydro-1(2H)-naphthalenone] | 5.5 nM |
| O=C1CCCc2c1ccc(O[C@H](Cn1ccnc1)c1ccccc1)c2CNc1ccccc1 [Compound 11] | 0.2 nM |
| CN(Cc1c(O[C@H](Cn2ccnc2)c2ccccc2)ccc2c1CCCC2=O)c1ccccc1 [Compound 12] | 4 nM |
| COC(=O)c1ccc(N(C)Cc2c(O[C@H](Cn3ccnc3)c3ccccc3)ccc3c2CCCC3=O)cc1 [Compound 13, Methyl 4-({[2-((1S)-2-imidazolyl-1-phenylethoxy)-5-oxo(6,7,8-trihydronaphthyl)]methyl}methylamino)benzoate] | 2 nM |
| CC(C)OCc1c(O[C@H](Cn2ccnc2)c2ccccc2)ccc2c1CCCC2=O [Compound 15, hydrochloride] | 0.2 nM |
| O=C1CCCc2c1ccc(O[C@H](Cn1ccnc1)c1ccccc1)c2COCc1ccccc1 [Compound 16, 6-((1S)-2-Imidazolyl-1-phenylethoxy)-5-[(phenylmethoxy)methyl]-2,3,4-trihydronaphthalen-1-one] | 0.8 nM |
| O=C1CCCc2c1ccc(O[C@H](Cn1ccnc1)c1ccccc1)c2COC1CCCC1 [Compound 17] | 0.3 nM |
| C=CCOCc1c(O[C@H](Cn2ccnc2)c2ccccc2)ccc2c1CCCC2=O [Compound 18, 6-((1S)-2-imidazolyl-1-phenylethoxy)-5-(prop-2-enyloxymethyl)-2,3,4-trihydronaphthalen-1-one] | 8 nM |
| CC(C)COCc1c(O[C@H](Cn2ccnc2)c2ccccc2)ccc2c1CCCC2=O [Compound 19a, 6-((S)-2-Imidazol-1-yl-1-phenyl-ethoxy)-5-isobutoxymethyl-1-3,4-dihydro-2H-naphthalen-1-one] | 1.9 nM |
| CCCOCc1c(O[C@H](Cn2ccnc2)c2ccccc2)ccc2c1CCCC2=O [Compound 19b, 6-((S)-2-Imidazol-1-yl-1-phenyl-ethoxy)-5-propoxymethyl-3,4-dihydro-2H-naphthalen-1-one] | 3.6 nM |
| CCC(CC)OCc1c(O[C@H](Cn2ccnc2)c2ccccc2)ccc2c1CCCC2=O [Compound 19c, 5-(1-Ethyl-propoxymethyl)-6-((S)-2-imidazol-1-yl-1-phenyl-ethoxy)-3,4-dihydro-2H-naphthalen-1-one] | 1.4 nM |
| O=C1CCCc2c1ccc(O[C@H](Cn1ccnc1)c1ccccc1)c2CCc1ccccc1 [Compound 20] | 0.4 nM |
| O=C1CCCc2c1ccc(O[C@H](Cn1ccnc1)c1ccccc1)c2-c1ccc2c(c1)OCO2 [Compound 21, 5-(2H-Benzo[d]-1,3-dioxolan-5-yl)-6-((1S)-2-imidazolyl-1-phenylethoxy)-2,3,4-trihydronaphthalen-1-one] | 8 nM |
| O=C1CCCc2c1ccc(O[C@H](Cn1ccnc1)c1ccccc1)c2-c1cccc(Cl)c1 [Compound 22, 6-((1S)-2-Imidazolyl-1-phenylethoxy)-5-(3-chlorophenyl)-2,3,4-trihydronaphthalen-1-one] | 26 nM |
| O=C1CCCc2c1ccc(O[C@H](Cn1ccnc1)c1ccccc1)c2-c1ccc2ccccc2c1 [Compound 23, 6-((1S)-2-Imidazolyl-1-phenylethoxy)-5-(2-naphthyl)-2,3,4-trihydronaphthalen-1-one] | 11 nM |
